Laboratory results as given in patent publication US7326689B2, “Pseudomycins useful against plant diseases” (Eli Lilly and Company, priority 2000, dated 2008).
Several values for one entry are separate records, joined by “and”; a condition that tells them apart may be missing. Identical values can stand only once.

Columns and labels:
Test in all cases: Antifungal growth assay in potato dextrose broth, 24-well
Assay type in all cases: cell-based
[1] = test system: Drechslera tritici-repentis; design: key: NI, no inhibition; p (partial), at least 50% inhibited
Description: (§1) Fungi to be tested were propagated on potato dextrose agar (PDA) plates at room temperature. Stock solutions of pseudomycins and depsipeptide were suspended in dimethylsulfoxide (DMSO) (Sigma) at 5 mg/ml and stored at −20C. Serial dilutions of compounds were done the day of the experiment. All serial dilutions were made in DMSO. […] These are noted in the raw data section.
(§2) Assays were performed in 24-well cell culture clusters (Costar 3524), with 990 ul potato dextrose broth (PDB, Difco) and 10 ul of the compound to be tested in each well. Initial concentrations tested were 50-1.56 ug/ml (final concentration of pseudomycin). Actual concentrations of pseudomycins tested were 50, 25, 12.5, 6.25, 3.12 and 1.56 ug/ml. Each well was inoculated with the appropriate fungus. Unless noted, the fungal inoculum consisted of an ˜4 mm^2 piece of PDA with fungal mycelium. The exceptions were as follows. Ustilago maydis: this fungus grows much like a yeast on PDA, and cells were scraped from the PDA stock plate, resuspended in PDB and 10 ul inoculum added to each well. Monilinia sp.: this fungal mycelium grows as a very loose sheet on top of PDA and would not adhere to agar blocks. Fungal mycelium was ground with a metal rod in 500 ul PDB and 10 ul inoculum was added to each well. Mycosphaeella fijiensis, Septoria passerinii, Septoria triticii: these fungi all grow very slowly and the results were difficult to score if a small piece of agar with fungal mycelium on it was used as an inoculum. For these fungi, the mycelium was ground with a metal rod in 500 ul PDB and 10 ul inoculum was added to each well.
(§3) Wells were scored for fungal growth at two days and five days. Some slow growing fungi were scored at later days for growth because assessment was not possible at two or five days. Growth was scored by comparison to a control consisting of fungus inoculated into 990 ul potato dextrose broth and 10 ul of DMSO (Dimethylsulfoxide). An additional control consisting of fungal inoculum in PDB only was performed to ensure that the DMSO was not inhibitory to fungal growth.
(§4) For assays that were repeated, new stock solutions were made from a second shipment of pseudomycins. Note that pseudomycin B′ and depsipeptide stock solutions were remade from first shipment materials because these were not included in the second shipment. […] Actual concentrations of pseudomycins tested were 2, 1, 0.5, 0.25, 0.125 and 0.0625 ug/ml. A-PO4 and A-FB=pseudomycin A phosphate salt and free base respectively.
(§5) Table 2: Two day results—concentration indicated is lowest level of compound (ug /ml) that results is no growth. NI, no inhibition; p (partial), at least 50% inhibited; -, not determined. If number of assays was greater than one, number of assays performed on the fungus is noted in parentheses. For several slow-growing fungi, days elapsed before observation (if different than two) are noted.
(§6) Table 3: Five day results—concentration indicated is lowest level of compound (ug /ml) that results in no growth. NI, no inhibition; p (partial), at least 50% inhibited; -, not performed on the fungus is noted in parentheses. For several slow-growing fungi, days elapsed before observation (if different than five) are noted.

Phytophthora cactorum = test system: Phytophthora cactorum; design: key: NI, no inhibition; p (partial), at least 50% inhibited
Description: as §1, §2, §3, §4, §5, §6

Diplodia natalensis = test system: Diplodia natalensis; design: key: NI, no inhibition; p (partial), at least 50% inhibited
Description: as §1, §2, §3, §4, §5, §6

Tapesia yallundae = test system: Tapesia yallundae; design: key: NI, no inhibition; p (partial), at least 50% inhibited; conditions: 2x assays
Description: as §1, §2, §3, §4, §5, §6

Cochliobolus carbonum = test system: Cochliobolus carbonum; design: key: NI, no inhibition; p (partial), at least 50% inhibited
Description: as §1, §2, §3, §4, §5, §6

Tapesia acuformis = test system: Tapesia acuformis; design: key: NI, no inhibition; p (partial), at least 50% inhibited; conditions: 2x assays
Description: as §1, §2, §3, §4, §5, §6

Phyllosticta maydis = test system: Phyllosticta maydis; design: key: NI, no inhibition; p (partial), at least 50% inhibited
Description: as §1, §2, §3, §4, §5, §6

Fusarium culmorum = test system: Fusarium culmorum; design: key: NI, no inhibition; p (partial), at least 50% inhibited
Description: as §1, §2, §3, §4, §5, §6

Phytophthora ultimum = test system: Phytophthora ultimum; design: key: NI, no inhibition; p (partial), at least 50% inhibited
Description: as §1, §2, §3, §4, §5, §6

Botrytis alli = test system: Botrytis alli; design: key: NI, no inhibition; p (partial), at least 50% inhibited; conditions: 2x assays
Description: as §1, §2, §3, §4, §5, §6

[2] = test system: Pestalotiopsis microspora NE-32; design: key: NI, no inhibition; p (partial), at least 50% inhibited
Description: as §1, §2, §3, §4, §5, §6

[3] = test system: Mycosphaeella fijiensis (Sigatoka); conditions: 3x assays
Description: as §1, §2, §3, §4, §5, §6

Penicillium roqueforti = conditions: 3x assays
Description: as §1, §2, §3, §4, §5, §6

Monilinia sp. = conditions: 2x assays
Description: as §1, §2, §3, §4, §5, §6

[4] = test system: Mycosphaeella fijiensis (8088/88); conditions: 3x assays
Description: as §1, §2, §3, §4, §5, §6

Drechslera portulacae = conditions: 3x assays
Description: as §1, §2, §3, §4, §5, §6

Ustilago maydis = conditions: 3x assays
Description: as §1, §2, §3, §4, §5, §6

Septoria passerinii = conditions: 3x assays
Description: as §1, §2, §3, §4, §5, §6

Septoria tritici = conditions: 3x assays
Description: as §1, §2, §3, §4, §5, §6

Geotrichim candidum = conditions: 3x assays
Description: as §1, §2, §3, §4, §5, §6

Rhizoctonia solani = conditions: 2x assays
Description: as §1, §2, §3, §4, §5, §6

[5] = Table 2 (two day results), observed at 7 day

## Pseudomycin B
[1]; five day results
  lowest level of compound that results in no growth: p at 50
[1]; two day results, 2x assays
  lowest level of compound that results in no growth: 50 µg/mL
Phytophthora cactorum; five day results
  lowest level of compound that results in no growth: NI
Phytophthora cactorum; two day results
  lowest level of compound that results in no growth: NI
Diplodia natalensis; five day results
  lowest level of compound that results in no growth: NI
Diplodia natalensis; two day results
  lowest level of compound that results in no growth: NI
Tapesia yallundae; five day results
  lowest level of compound that results in no growth: NI
Tapesia yallundae; two day results
  lowest level of compound that results in no growth: 25 µg/mL
Cochliobolus carbonum; five day results
  lowest level of compound that results in no growth: NI
Cochliobolus carbonum; two day results
  lowest level of compound that results in no growth: NI
Tapesia acuformis; five day results
  lowest level of compound that results in no growth: NI
Tapesia acuformis; two day results
  lowest level of compound that results in no growth: NI
Phyllosticta maydis; five day results
  lowest level of compound that results in no growth: 50 µg/mL
Phyllosticta maydis; two day results
  lowest level of compound that results in no growth: 50 µg/mL
Fusarium culmorum; five day results
  lowest level of compound that results in no growth: NI
Fusarium culmorum; two day results
  lowest level of compound that results in no growth: NI
Phytophthora ultimum; five day results
  lowest level of compound that results in no growth: NI
Phytophthora ultimum; two day results
  lowest level of compound that results in no growth: NI
Botrytis alli; five day results
  lowest level of compound that results in no growth: NI
Botrytis alli; two day results
  lowest level of compound that results in no growth: NI
[2]; five day results
  lowest level of compound that results in no growth: p at 50
[2]; two day results
  lowest level of compound that results in no growth: p at 50
[3]; [5]
  lowest level of compound that results in no growth: 0.5 µg/mL
[3]; Table 3 (five day results), observed at 21 days
  lowest level of compound that results in no growth: 1 µg/mL
Penicillium roqueforti; five day results
  lowest level of compound that results in no growth: 6.25 µg/mL
Penicillium roqueforti; two day results
  lowest level of compound that results in no growth: 0.5 µg/mL
Monilinia sp.; five day results
  lowest level of compound that results in no growth: 6.25 µg/mL
Monilinia sp.; two day results
  lowest level of compound that results in no growth: 3.13 µg/mL
[4]; [5]
  lowest level of compound that results in no growth: 0.06 µg/mL
[4]; Table 3 (five day results), observed at 21 days, listed as B
  lowest level of compound that results in no growth: 0.12 µg/mL
[4]; Table 3 (five day results), observed at 21 days, listed as pseudomycin B
  lowest level of compound that results in no growth: 0.125 µg/mL
Drechslera portulacae; Table 3 (five day results), observed at 9 day
  lowest level of compound that results in no growth: 0.0625 µg/mL and 0.06 µg/mL
Drechslera portulacae; two day results
  lowest level of compound that results in no growth: 0.06 µg/mL
Ustilago maydis; five day results
  lowest level of compound that results in no growth: 0.5 µg/mL
Ustilago maydis; two day results
  lowest level of compound that results in no growth: 0.5 µg/mL
Septoria passerinii; five day results, listed as B
  lowest level of compound that results in no growth: 0.0625 µg/mL and 0.06 µg/mL
Septoria passerinii; two day results
  lowest level of compound that results in no growth: 0.06 µg/mL
Septoria tritici; five day results, listed as B
  lowest level of compound that results in no growth: 0.06 µg/mL
Septoria tritici; five day results, listed as pseudomycin B
  lowest level of compound that results in no growth: 0.0625 µg/mL
Septoria tritici; two day results
  lowest level of compound that results in no growth: 0.06 µg/mL
Geotrichim candidum; five day results
  lowest level of compound that results in no growth: 3.12 µg/mL
Geotrichim candidum; two day results
  lowest level of compound that results in no growth: 1.56 µg/mL
Rhizoctonia solani; five day results
  lowest level of compound that results in no growth: 50 µg/mL
Rhizoctonia solani; two day results
  lowest level of compound that results in no growth: 6.25 µg/mL
